Counter-ions that a name gives are not always drawn. Like-named read-outs stand apart in the source and are kept apart here.
Columns and labels:
[1] = biological target: T1, RORγt (Homo sapiens, UniProt P51449); assay: RORγt binding test (TR-FRET, fluorescent-labeled cholesterol); conditions: read-out: binding inhibitory rate (%) of fluorescent-labeled cholesterol to RORγt at test compound 1 μM
T1 sequence (P51449 1-497 isoform P51449-2): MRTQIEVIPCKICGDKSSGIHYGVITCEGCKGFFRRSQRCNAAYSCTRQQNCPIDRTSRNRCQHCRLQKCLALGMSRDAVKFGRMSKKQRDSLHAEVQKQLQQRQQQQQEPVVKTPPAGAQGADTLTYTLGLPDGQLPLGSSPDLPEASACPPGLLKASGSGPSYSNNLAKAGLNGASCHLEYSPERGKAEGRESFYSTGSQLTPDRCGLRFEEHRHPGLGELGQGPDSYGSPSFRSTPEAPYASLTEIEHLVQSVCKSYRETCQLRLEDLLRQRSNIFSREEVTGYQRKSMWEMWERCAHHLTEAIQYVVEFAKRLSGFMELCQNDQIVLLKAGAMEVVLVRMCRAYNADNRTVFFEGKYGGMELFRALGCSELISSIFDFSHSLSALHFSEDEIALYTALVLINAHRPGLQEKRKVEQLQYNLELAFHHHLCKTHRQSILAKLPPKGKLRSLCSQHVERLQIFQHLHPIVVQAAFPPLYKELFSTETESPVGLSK
Procedure: The binding activity of the test compound to RORγt was measured by a time resolved fluorescence resonance energy transfer method (TR-FRET) utilizing histidine-tagged RORγt, fluorescent-labeled cholesterol (BODIPY-cholesterol, AVIVA), and terbium-labeled anti-histidine tag antibody (Invitrogen). First, a test compound diluted with an assay buffer (20 mM Tris-HCl (pH 7.5), 100 mM NaCl, 1 mM DTT, 0.1% BSA) was added to a 384 well plate by 3 μL. Then, RORγt diluted with an assay buffer to 240 nM was added by 3 μL, after which fluorescent-labeled cholesterol diluted with the assay buffer to 12 μM was added by 3 μL, and the mixture was stood at room temperature for 20 min. Thereafter, a terbium-labeled anti-histidine tag antibody diluted with the assay buffer to 8 nM was added by 3 μL. The mixture was stood at room temperature for 20 min, and fluorescence intensity (excitation wavelength 320 nm, fluorescence wavelength 520 nm, delay time 100 microseconds) was measured by Envision (PerkinElmer).

[2] = biological target: T1, RORγt; assay: Jurkat reporter test (human IL-17 ROR response element luciferase reporter); type: cell-based; conditions: read-out: luminescence level inhibitory rate (%) at test compound 3 μM
Procedure: The Jurkat cells used for the reporter test were cultured in a culture medium (RPMI (Invitrogen), 10% FCS (AusGeneX), 100 U/mL penicillin, 100 μg/mL streptomycin). On the day of the test, 4×10^7 cells were recovered by a centrifugal operation (1000 rpm, 5 min.) and suspended in PBS (phosphate buffered saline) (Invitrogen). Thereafter, the cells were recovered again by a centrifugal operation, and suspended in 2 mL of R buffer (NEON transfection kit, Invitrogen). […] Gene transfer was performed by Electroporation apparatus (NEON, Invitrogen) under the conditions of pulse voltage 1350 V, interval 10 milliseconds, number of times 3. The cells after gene transfer were suspended in 40 mL of a reaction medium (RPMI, 10% Lipid reduced FCS (HyClone), 10 mM HEPES (pH 7.5), 100 U/mL penicillin, 100 μg/mL streptomycin, 5 μM lovastatin), and plated in a 96 well plate by 90 μL. A test compound diluted with the reaction medium was added by 10 μL, and the cells were cultured overnight in an incubator. Bright-Glo (Promega) was added by 100 μL, and the mixture was stirred at room temperature for 10 min, and the luminescence level was measured by Envision (PerkinElmer).

[3] = biological target: T1, RORγt; assay: Cofactor recruitment test (Alpha Screen, biotinylated SRC-1 peptide); type: biochemical; conditions: read-out: signal value inhibitory rate (%) at test compound 1 μM
Procedure: Cofactor Recruitment Test
Cofactor recruitment test was performed by Alpha Screen (Histidine Detection Kit, PerkinElmer) method. First, a test compound was diluted with an assay buffer (50 mM Tris-HCl (pH 7.5), 50 mM KCl, 1 mM DTT, 0.1% BSA) and added to a 384 well plate by 5 μL. […] The mixture was stood in a dark place for 1 hr, and the signal value was measured by Envision (PerkinElmer).

[4] = test compound 3 μM, Jurkat cells

| inhibition at 3 µM [2, 4] [%] | SMILES | inhibition at 1 µM [1] [%] | inhibition at 3 µM ([2]; Jurkat) [%] | inhibition at 1 µM [3] [%] |
| --- | --- | --- | --- | --- |
|  | COCc1ccc([C@@H](NC(=O)[C@H]2CNC(=O)C2)C(=O)Nc2ccc([Si](C)(C)C)c(F)c2)cc1 [Example 54, (3R)—N-((1R)-2-((3-fluoro-4-(trimethylsilyl)phenyl)amino)-1-(4-(methoxymethyl)phenyl)-2-oxoethyl)-5-oxopyrrolidine-3-carboxamide] | 102 | 99 | 95.6 |
|  | COCc1ccc([C@@H](NC(=O)[C@@H]2CNC(=O)C2)C(=O)Nc2ccc([Si](C)(C)C)c(F)c2)cc1 [Example 49, (3S)—N-((1R)-2-((3-fluoro-4-(trimethylsilyl)phenyl)amino)-1-(4-(methoxymethyl)phenyl)-2-oxoethyl)-5-oxopyrrolidine-3-carboxamide] | 101 | 98.4 | 96.9 |
|  | C[Si](C)(C)c1c(F)cc(NC(=O)[C@H](NC(=O)c2cc(O)no2)C2CCOCC2)cc1F [Example 3, N-((1R)-2-((3,5-difluoro-4-(trimethylsilyl)phenyl)amino)-2-oxo-1-(tetrahydro-2H-pyran-4-yl)ethyl)-3-hydroxy-1,2-oxazole-5-carboxamide] | 100 | 98.4 | 72.3 |
|  | COc1ccc(C(C(=O)Nc2ccc([Si](C)(C)C)c(F)c2)N(C)C(=O)c2cc(O)no2)cc1 (stereo not drawn) [Example 15, N-(2-((3-fluoro-4-(trimethylsilyl)phenyl)amino)-1-(4-methoxyphenyl)-2-oxoethyl)-3-hydroxy-N-methyl-1,2-oxazole-5-carboxamide] | 109 | 99.4 | 91.6 |
|  | C[Si](C)(C)c1ccc(NC(=O)C(NC(=O)c2cc(O)no2)C2CCC(F)(F)CC2)cc1F (stereo not drawn) [Example 4, N-(1-(4,4-difluorocyclohexyl)-2-((3-fluoro-4-(trimethylsilyl)phenyl)amino)-2-oxoethyl)-3-hydroxy-1,2-oxazole-5-carboxamide] | 100 | 97 | 78.8 |
|  | COCc1ccc([C@@H](NC(=O)CN2CCOCC2)C(=O)Nc2ccc([Si](C)(C)C)c(F)c2)cc1 [Example 97, (2R)—N-(3-fluoro-4-(trimethylsilyl)phenyl)-2-(4-(methoxymethyl)phenyl)-2-((morpholin-4-ylacetyl)amino)acetamide hydrochloride] | 102 | 98.3 | 93.6 |
|  | COc1ccc(C(C(=O)Nc2ccc([Si](C)(C)C)c(Cl)c2)N(C)C(=O)c2cc(O)no2)cc1 (stereo not drawn) [Example 48, N-(2-((3-chloro-4-(trimethylsilyl)phenyl)amino)-1-(4-methoxyphenyl)-2-oxoethyl)-3-hydroxy-N-methyl-1,2-oxazole-5-carboxamide] | 103 | 95.7 | 73 |
|  | COCc1ccc([C@@H](NC(=O)CC(C)(C)C(=O)O)C(=O)Nc2cc(F)c([Si](C)(C)C)c(F)c2)cc1 [Example 103, 4-(((1R)-2-((3,5-difluoro-4-(trimethylsilyl)phenyl)amino)-1-(4-(methoxymethyl)phenyl)-2-oxoethyl)amino)-2,2-dimethyl-4-oxobutanoic acid] | 102 | 100 | 96.2 |
|  | COCc1ccc(C(NC(=O)Cc2cnn(C)c2)C(=O)Nc2ccc([Si](C)(C)C)cc2)cc1 (stereo not drawn) [Example 22, 2-(4-(methoxymethyl)phenyl)-2-(((1-methyl-1H-pyrazol-4-yl)acetyl)amino)-N-(4-(trimethylsilyl)phenyl)acetamide] | 101 | 97.2 | 90.6 |
|  | COCc1ccc(C(C(=O)Nc2cc(F)c([Si](C)(C)C)c(F)c2)N(C)C(=O)c2cc(O)no2)cc1 (stereo not drawn) [Example 38, N-(2-((3,5-difluoro-4-(trimethylsilyl)phenyl)amino)-1-(4-(methoxymethyl)phenyl)-2-oxoethyl)-3-hydroxy-N-methyl-1,2-oxazole-5-carboxamide] | 102 | 100 | 99.7 |
| 101 | Cn1ncc2cc([C@@H](NC(=O)Cc3cc(O)no3)C(=O)Nc3cc(F)c(C(C)(C)C)c(F)c3)ccc21 [Example 419, (2R)-N-(4-tert-butyl-3,5-difluorophenyl)-2-(((3-hydroxy-1,2-oxazol-5-yl)acetyl)amino)-2-(1-methyl-1H-indazol-5-yl)acetamide] | 103 |  | 87 |
| 99.7 | COCc1ccc([C@@H](NC(=O)[C@H]2CNC(=O)C2)C(=O)Nc2cc(F)c(C(C)(C)C)c(F)c2)cc1 [Example 113, (3R)—N-((1R)-2-((4-tert-butyl-3,5-difluorophenyl)amino)-1-(4-(methoxymethyl)phenyl)-2-oxoethyl)-5-oxopyrrolidine-3-carboxamide] | 102 |  | 83.9 |
|  | COCc1ccc([C@@H](NC(=O)N2CC[C@@H](F)C2)C(=O)Nc2ccc([Si](C)(C)C)c(F)c2)cc1 [Example 95, (3R)-3-fluoro-N-((1R)-2-((3-fluoro-4-(trimethylsilyl)phenyl)amino)-1-(4-(methoxymethyl)phenyl)-2-oxoethyl)pyrrolidine-1-carboxamide] | 99.3 | 99.8 | 93.8 |
|  | COCc1ccc([C@@H](NC(=O)Cc2nnc(C)o2)C(=O)Nc2ccc([Si](C)(C)C)c(F)c2)cc1 [Example 67, (2R)—N-(3-fluoro-4-(trimethylsilyl)phenyl)-2-(4-(methoxymethyl)phenyl)-2-(((5-methyl-1,3,4-oxadiazol-2-yl)acetyl)amino)acetamide] | 103 | 98.5 | 96 |
|  | CCNC(=O)N[C@@H](C(=O)Nc1ccc([Si](C)(C)C)c(F)c1)c1ccc(COC)cc1 [Example 90, (2R)-2-((ethylcarbamoyl)amino)-N-(3-fluoro-4-(trimethylsilyl)phenyl)-2-(4-(methoxymethyl)phenyl)acetamide] | 102 | 101 | 96 |
|  | COc1ccc(C(NC(=O)C2CNC(=O)C2)C(=O)Nc2cc(F)c([Si](C)(C)C)cc2F)cc1 (stereo not drawn) [Example 42, N-(2-((2,5-difluoro-4-(trimethylsilyl)phenyl)amino)-1-(4-methoxyphenyl)-2-oxoethyl)-5-oxopyrrolidine-3-carboxamide] | 102 | 99.1 | 88.5 |
|  | COc1ccc(C(NC(=O)Cc2ccc(=O)[nH]c2)C(=O)Nc2ccc([Si](C)(C)C)cc2)cc1 (stereo not drawn) [Example 16, 2-(4-methoxyphenyl)-2-(((6-oxo-1,6-dihydropyridin-3-yl)acetyl)amino)-N-(4-(trimethylsilyl)phenyl)acetamide] | 102 | 93.2 | 81.9 |
|  | COCc1ccc([C@@H](NC(=O)C2CC(F)(F)C2)C(=O)Nc2ccc([Si](C)(C)C)c(F)c2)cc1 [Example 91, 3,3-difluoro-N-((1R)-2-((3-fluoro-4-(trimethylsilyl)phenyl)amino)-1-(4-(methoxymethyl)phenyl)-2-oxoethyl)cyclobutanecarboxamide] | 102 | 98 | 94.6 |

From patent US11851449B2, “Heterocyclic amide compounds having an RORvt inhibitory action” (TAKEDA PHARMACEUTICAL COMPANY LIMITED, priority 2013, dated 2023)
